Key:
[1] = target: D(3) dopamine receptor (Homo sapiens) (UniProt P35462); assay: Inhibition of dopamine D3 receptor (unknown origin) at 1 uM relative to control
[2] = target: T1, Adrenergic receptor alpha-1 (Rattus norvegicus, UniProt P15823+P23944+P43140); assay: Displacement of [3H]-prazosin from alpha1 adrenergic receptor in rat cortex measured after 30 mins by microbeta2 scintillation counting method; format: tissue-based
T1 sequence (P15823 whole entry): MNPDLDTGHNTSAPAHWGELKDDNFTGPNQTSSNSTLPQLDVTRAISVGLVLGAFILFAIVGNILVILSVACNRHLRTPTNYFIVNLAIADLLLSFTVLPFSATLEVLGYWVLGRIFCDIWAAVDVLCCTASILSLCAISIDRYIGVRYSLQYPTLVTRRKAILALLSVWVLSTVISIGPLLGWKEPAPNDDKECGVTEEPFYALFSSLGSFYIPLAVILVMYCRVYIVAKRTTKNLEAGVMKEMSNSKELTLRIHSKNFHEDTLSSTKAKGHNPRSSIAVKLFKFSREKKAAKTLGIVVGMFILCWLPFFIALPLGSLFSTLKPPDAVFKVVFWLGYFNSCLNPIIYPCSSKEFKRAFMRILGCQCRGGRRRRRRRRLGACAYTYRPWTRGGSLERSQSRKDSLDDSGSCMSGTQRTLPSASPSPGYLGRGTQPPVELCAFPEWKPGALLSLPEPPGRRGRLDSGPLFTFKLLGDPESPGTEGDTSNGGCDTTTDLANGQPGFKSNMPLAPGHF
T1 sequence (P23944 whole entry): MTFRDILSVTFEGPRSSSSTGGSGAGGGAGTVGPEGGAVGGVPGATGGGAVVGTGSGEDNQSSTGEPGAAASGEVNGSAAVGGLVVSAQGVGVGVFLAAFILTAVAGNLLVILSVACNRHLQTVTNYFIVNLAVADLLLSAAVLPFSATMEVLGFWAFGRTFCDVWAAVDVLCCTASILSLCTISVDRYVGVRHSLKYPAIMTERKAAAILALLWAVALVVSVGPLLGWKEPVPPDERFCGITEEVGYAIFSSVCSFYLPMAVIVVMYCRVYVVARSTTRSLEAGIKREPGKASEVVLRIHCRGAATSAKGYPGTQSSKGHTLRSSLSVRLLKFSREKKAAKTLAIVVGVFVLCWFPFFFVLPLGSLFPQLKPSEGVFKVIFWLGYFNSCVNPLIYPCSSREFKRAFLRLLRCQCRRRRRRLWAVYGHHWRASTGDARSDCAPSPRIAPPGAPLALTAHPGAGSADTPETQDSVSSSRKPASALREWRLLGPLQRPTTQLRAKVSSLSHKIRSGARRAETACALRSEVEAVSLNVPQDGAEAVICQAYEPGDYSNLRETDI
T1 sequence (P43140 whole entry): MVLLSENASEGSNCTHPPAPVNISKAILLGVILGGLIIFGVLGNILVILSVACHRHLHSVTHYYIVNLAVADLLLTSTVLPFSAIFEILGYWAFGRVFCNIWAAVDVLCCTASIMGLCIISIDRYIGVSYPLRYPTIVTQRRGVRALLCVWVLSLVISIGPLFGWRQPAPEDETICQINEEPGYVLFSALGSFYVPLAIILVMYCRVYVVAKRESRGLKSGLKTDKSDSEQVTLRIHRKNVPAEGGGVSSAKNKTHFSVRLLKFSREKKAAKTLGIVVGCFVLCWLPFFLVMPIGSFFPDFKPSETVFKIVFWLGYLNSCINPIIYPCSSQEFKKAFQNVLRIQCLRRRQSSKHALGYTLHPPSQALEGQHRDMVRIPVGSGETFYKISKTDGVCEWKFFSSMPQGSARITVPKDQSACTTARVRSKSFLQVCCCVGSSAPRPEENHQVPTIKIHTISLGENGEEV

[3] = Protein binding in human plasma; format: ADME, cell-free; conditions: read-out: PPB (converted)
[4] = In vivo biased agonist activity at 5-HT1A receptor in rat prefrontal cortex assessed as serum concentration causing 50% increase in ERK1/2 phosphorylation level after oral administration measured 15 mins post drug administration
[5] = target: Muscarinic acetylcholine receptor M4 (Homo sapiens) (UniProt P08173); assay: Inhibition of muscarinic M4 receptor (unknown origin) at 1 uM relative to control
[6] = test system: Rattus norvegicus; assay: Antidepressant-like activity in Wistar rat assessed as serum concentration causing 50% reduction in immobility time after oral administration of compound and measured after 15 mins by Porsolt-forced swim test; format: functional
[7] = target: 5-hydroxytryptamine receptor 1B (Homo sapiens) (UniProt P28222); assay: Inhibition of 5-HT1B (unknown origin) at 10 uM relative to control
[8] = target: Muscarinic acetylcholine receptor M1 (Homo sapiens) (UniProt P11229); assay: Inhibition of muscarinic M1 receptor (unknown origin) at 10 uM relative to control
[9] = target: cGMP-inhibited 3',5'-cyclic phosphodiesterase 3A (Homo sapiens) (UniProt Q14432); assay: Inhibition of PDE3A (unknown origin) at 10 uM relative to control
[10] = Intrinsic clearance in human liver microsomes at 0.1 uM; format: ADME, Microsome; conditions: read-out: CLH
[11] = test system: Rattus norvegicus; assay: Antidepressant-like activity in Wistar rat assessed as maximum effective dose causing reduction in immobility time after oral administration with compound 60 mins prior to testing and measured for 5 mins test period by Porsolt-forced swim test; format: functional; conditions: time 65 min; 1.083 h
[12] = species on record: Homo sapiens; assay: Inhibition of L-type calcium channel dihydropyridine binding site (unknown origin) at 10 uM relative to control
[13] = test system: Rattus norvegicus; assay: In vivo biased agonist activity at 5-HT1A receptor in rat prefrontal brain cortex assessed as increase in ERK1/2 phosphorylation levels at […], po administered as single dose by Alphalisa assay; format: functional, organism-based; conditions: time 5-60 min, TDE = time-dependent effect
[14] = target: 5-hydroxytryptamine receptor 7 (Homo sapiens) (UniProt P34969); assay: Inhibition of 5-HT7 (unknown origin) at 1 uM relative to control
[15] = target: Glucocorticoid receptor (Homo sapiens) (UniProt P04150); assay: Inhibition of glucocorticoid receptor (unknown origin) at 10 uM relative to control
[16] = target: Sodium-dependent serotonin transporter (Homo sapiens) (UniProt P31645); assay: Inhibition of serotonin transporter (unknown origin) at 10 uM relative to control
[17] = target: hERG (KCNH2) (Homo sapiens, UniProt Q12809); assay: Inhibition of human ERG at 10 uM by patch clamp technique relative to control
[18] = In vivo biased agonist activity at 5-HT1A receptor in rat prefrontal brain cortex assessed as time required to cause maximum increase in ERK1/2 phosphorylation levels at […], po administered as single dose by Alphalisa assay; format: functional
[19] = target: 5-hydroxytryptamine receptor 2A (Homo sapiens) (UniProt P28223); assay: Inhibition of 5-HT2A (unknown origin) at 10 uM relative to control
[20] = target: Histamine H1 receptor (Homo sapiens) (UniProt P35367); assay: Inhibition of histamine H1 receptor (unknown origin) at 10 uM relative to control
[21] = Toxicity in Wistar rat assessed as effect on flat body posture at 0.04 to […], po observed after 60 mins post treatment; format: organism-based; conditions: in vivo, 1 h, dose 0.04-2.5 mg/kg

hERG (KCNH2), sequence (Q12809 whole entry): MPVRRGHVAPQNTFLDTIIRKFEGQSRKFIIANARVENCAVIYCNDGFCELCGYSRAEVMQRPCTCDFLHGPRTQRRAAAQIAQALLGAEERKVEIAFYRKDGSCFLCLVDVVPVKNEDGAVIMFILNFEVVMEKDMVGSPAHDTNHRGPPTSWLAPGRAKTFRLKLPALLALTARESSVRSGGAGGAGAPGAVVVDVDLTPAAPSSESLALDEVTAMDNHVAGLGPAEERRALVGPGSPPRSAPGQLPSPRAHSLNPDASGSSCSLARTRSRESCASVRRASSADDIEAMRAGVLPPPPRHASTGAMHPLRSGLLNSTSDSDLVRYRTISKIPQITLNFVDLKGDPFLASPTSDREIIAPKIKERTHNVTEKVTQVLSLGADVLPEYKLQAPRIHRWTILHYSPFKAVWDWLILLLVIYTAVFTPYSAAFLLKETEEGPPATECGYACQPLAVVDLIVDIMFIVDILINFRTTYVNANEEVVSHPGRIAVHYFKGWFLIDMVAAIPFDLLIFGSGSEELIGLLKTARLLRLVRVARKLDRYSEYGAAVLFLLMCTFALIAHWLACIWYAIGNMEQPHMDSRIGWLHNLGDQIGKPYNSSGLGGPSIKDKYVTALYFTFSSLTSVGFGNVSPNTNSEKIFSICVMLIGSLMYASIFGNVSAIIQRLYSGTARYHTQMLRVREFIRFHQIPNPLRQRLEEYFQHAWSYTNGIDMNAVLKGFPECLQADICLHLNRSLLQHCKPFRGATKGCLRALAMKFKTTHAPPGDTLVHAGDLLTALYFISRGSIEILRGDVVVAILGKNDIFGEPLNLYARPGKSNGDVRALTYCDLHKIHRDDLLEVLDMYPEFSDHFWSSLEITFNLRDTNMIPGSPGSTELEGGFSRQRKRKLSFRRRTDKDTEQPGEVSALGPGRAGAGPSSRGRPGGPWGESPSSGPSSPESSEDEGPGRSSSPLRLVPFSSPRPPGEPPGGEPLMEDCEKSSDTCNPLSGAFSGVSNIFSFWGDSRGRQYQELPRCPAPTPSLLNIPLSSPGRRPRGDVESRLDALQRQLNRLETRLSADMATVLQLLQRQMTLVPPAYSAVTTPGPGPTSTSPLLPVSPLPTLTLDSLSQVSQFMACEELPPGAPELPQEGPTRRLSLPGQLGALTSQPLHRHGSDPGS
D(3) dopamine receptor (Homo sapiens), sequence (P35462 whole entry): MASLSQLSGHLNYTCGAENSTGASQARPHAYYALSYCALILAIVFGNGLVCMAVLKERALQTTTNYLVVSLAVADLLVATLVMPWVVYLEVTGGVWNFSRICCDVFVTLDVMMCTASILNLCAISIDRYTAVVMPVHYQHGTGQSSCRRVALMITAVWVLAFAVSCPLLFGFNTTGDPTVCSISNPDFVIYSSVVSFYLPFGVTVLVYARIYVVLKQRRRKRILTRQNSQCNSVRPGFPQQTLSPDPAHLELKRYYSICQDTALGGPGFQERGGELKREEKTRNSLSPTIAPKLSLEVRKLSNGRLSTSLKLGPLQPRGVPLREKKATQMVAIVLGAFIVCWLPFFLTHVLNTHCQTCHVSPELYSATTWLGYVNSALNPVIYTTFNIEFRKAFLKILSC
Histamine H1 receptor (Homo sapiens), sequence (P35367 whole entry): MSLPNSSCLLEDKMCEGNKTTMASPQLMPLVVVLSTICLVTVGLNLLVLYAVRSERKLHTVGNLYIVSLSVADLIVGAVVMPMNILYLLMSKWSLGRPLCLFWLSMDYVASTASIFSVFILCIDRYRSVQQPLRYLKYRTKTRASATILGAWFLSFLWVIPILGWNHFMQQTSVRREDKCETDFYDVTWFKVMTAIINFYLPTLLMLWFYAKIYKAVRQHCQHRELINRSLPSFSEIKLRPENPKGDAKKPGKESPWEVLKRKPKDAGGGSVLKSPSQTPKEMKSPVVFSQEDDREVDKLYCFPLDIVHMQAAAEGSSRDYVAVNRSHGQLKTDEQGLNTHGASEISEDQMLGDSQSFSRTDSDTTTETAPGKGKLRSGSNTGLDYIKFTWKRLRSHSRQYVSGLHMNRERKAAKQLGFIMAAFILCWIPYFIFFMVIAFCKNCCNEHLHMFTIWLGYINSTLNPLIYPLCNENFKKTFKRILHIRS
Muscarinic acetylcholine receptor M1 (Homo sapiens), sequence (P11229 whole entry): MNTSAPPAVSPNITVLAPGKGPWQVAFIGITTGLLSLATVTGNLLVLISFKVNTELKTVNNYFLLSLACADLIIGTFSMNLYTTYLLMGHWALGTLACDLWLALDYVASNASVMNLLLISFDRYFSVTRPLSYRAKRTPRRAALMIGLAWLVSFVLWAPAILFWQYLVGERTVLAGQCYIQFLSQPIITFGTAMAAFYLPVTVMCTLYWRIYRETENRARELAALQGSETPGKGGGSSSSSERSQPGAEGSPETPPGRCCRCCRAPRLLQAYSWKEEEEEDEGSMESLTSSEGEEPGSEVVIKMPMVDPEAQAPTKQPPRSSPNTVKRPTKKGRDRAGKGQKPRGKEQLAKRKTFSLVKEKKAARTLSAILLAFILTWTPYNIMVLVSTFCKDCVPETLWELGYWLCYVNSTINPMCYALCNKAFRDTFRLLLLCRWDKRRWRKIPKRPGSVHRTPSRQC
cGMP-inhibited 3',5'-cyclic phosphodiesterase 3A (Homo sapiens), sequence (Q14432 whole entry): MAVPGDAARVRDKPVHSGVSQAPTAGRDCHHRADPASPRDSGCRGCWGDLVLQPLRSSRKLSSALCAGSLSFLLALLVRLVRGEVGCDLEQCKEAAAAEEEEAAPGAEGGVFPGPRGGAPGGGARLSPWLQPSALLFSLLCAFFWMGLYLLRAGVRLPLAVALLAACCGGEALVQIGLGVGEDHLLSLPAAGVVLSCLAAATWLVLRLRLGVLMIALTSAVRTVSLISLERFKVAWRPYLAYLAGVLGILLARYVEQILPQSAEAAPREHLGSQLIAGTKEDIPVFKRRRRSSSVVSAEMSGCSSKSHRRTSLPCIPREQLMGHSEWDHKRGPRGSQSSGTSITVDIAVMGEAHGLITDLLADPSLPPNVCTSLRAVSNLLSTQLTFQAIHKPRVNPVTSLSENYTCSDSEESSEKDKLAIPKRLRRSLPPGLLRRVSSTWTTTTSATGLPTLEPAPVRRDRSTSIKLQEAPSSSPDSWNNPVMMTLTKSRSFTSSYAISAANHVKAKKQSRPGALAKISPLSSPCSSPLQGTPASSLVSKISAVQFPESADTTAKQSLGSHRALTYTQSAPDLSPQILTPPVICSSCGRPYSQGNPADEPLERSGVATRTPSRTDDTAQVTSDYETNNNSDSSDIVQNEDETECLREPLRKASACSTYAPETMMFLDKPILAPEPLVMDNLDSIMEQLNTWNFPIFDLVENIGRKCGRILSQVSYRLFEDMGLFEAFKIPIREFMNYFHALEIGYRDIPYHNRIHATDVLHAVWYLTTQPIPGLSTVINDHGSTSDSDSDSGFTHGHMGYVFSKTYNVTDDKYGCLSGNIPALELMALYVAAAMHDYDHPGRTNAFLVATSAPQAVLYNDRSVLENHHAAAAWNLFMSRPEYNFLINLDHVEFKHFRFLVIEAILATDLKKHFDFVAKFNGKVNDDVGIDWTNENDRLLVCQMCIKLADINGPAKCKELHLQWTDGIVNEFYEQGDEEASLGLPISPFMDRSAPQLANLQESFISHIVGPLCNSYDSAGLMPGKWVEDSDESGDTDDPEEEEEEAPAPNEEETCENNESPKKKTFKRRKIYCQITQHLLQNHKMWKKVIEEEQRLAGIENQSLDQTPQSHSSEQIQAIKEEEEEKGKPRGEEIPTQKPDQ
Glucocorticoid receptor (Homo sapiens), sequence (P04150 whole entry): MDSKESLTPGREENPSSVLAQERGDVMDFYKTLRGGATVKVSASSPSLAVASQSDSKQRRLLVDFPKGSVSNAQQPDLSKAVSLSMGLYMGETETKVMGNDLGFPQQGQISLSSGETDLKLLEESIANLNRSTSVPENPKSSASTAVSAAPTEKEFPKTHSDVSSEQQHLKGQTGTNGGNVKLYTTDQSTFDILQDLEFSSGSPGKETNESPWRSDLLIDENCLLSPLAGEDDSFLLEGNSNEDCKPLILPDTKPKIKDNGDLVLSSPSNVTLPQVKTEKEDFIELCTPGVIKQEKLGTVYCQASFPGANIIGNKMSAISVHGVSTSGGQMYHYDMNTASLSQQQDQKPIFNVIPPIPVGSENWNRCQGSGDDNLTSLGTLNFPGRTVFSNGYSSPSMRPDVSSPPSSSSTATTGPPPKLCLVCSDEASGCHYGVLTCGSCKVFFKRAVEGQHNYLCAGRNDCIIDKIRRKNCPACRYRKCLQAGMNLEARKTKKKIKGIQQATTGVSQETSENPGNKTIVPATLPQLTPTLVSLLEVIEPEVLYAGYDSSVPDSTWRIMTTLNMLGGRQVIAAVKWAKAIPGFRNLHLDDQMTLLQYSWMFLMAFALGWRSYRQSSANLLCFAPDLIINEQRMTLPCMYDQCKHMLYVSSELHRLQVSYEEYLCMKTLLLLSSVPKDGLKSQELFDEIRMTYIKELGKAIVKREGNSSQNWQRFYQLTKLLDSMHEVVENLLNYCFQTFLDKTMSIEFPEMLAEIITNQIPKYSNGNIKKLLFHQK
5-hydroxytryptamine receptor 7 (Homo sapiens), sequence (P34969 whole entry): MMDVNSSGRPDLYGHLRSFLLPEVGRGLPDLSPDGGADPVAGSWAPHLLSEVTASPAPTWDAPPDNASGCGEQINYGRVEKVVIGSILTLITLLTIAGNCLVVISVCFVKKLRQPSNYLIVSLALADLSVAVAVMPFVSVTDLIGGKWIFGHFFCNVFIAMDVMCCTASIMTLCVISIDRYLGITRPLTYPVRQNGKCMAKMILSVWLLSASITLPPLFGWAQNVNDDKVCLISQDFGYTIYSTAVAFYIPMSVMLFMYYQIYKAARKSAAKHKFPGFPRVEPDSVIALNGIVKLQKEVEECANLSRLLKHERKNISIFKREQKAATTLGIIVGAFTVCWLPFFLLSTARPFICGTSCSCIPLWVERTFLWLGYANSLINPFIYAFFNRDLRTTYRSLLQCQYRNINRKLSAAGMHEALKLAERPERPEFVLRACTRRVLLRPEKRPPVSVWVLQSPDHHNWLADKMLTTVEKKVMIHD

Question: With O=C(c1ccc(F)c(Cl)c1)N1CCC(F)(CNCCOc2ccccn2)CC1 as the compound, how does the inhibition [1] read?
Answer: 39.1%

Question: And the pKi [2]?
Answer: 6.78

Question: What about the fraction unbound [3] of the same compound?
Answer: 0.068

Question: And the EC [4]?
Answer: 17.2 ng/mL

Question: And the inhibition [5]?
Answer: 8.8%

Question: And the EC [6]?
Answer: 6.76 ng/mL

Question: What about the inhibition [7] of the same compound?
Answer: -9.1%

Question: What about the inhibition [8] of the same compound?
Answer: 12.9%

Question: And the inhibition [9]?
Answer: -3.9%

Question: And the microsomal CLint at 0.1 µM [10]?
Answer: < 115 µL/min/mg

Question: And the ED [11]?
Answer: 2.5 mg/kg

Question: And the inhibition [12]?
Answer: 18.2%

Question: And the Activity [13]?
Answer: Tde

Question: And the inhibition [14]?
Answer: 13.2%

Question: What about the inhibition [15] of the same compound?
Answer: -5.1%

Question: And the inhibition [16]?
Answer: 0.9%

Question: And the inhibition at 10 µM [17]?
Answer: 46.5%

Question: What about the Time [18] of the same compound?
Answer: 15 min

Question: And the inhibition [19]?
Answer: 9%

Question: What about the inhibition [20] of the same compound?
Answer: -0.5%

Question: And the Activity [21]?
Answer: Non-Toxic
